The values below come from PubChem BioAssay AID179 (DTP/NCI, 2004).

This assay has as its system CEM cells HIV-1 protection, formazan growth assay. Put plainly: NCI AIDS Antiviral Assay. The settings on record: for IC50: measured here: growth of uninfected CEM cells. How it is done: The ability of compounds to protect human CEM cells from HIV-1 infection is measured as a screen for new compounds capable of inhibiting the HIV virus. Five concentrations of drug were tested on uninfected and infected cells and cell growth was measured using a soluble formazan assay. […] Compounds that provided at least 50% protection were retested. Compounds that provided at least 50% protection on retest were listed as moderately active. Compounds that reproducibly provided 100% protection were listed as confirmed active. […] Note that the inability to provide protection could be due to toxicity.

Calls of active or inactive are those of the source.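 Rule for the calls: active = compounds giving half or more protection of infected cells from virus-caused growth loss, again on retest; inactive = the rest.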

On to `CN1CCC/C1=N\c1scc(-c2ccc(Br)cc2)[n+]1-c1ccccc1`, for which the EC50 (commonly the concentration that produces a half-maximal response) is above 38 µM and the concentration for half-maximal inhibition (IC50) (usually the concentration at which inhibition is half-maximal) stood at 5.75 µM.

With `COc1ccc(/C=C/c2ccc3ccccc3[n+]2C)cc1OC`, the EC50 was 0.0631 µM and the IC50 stood at 52.5 µM.

On to `CC1=NN(c2nc(N)nc(C/C(N)=N/O)n2)C(C)(C)C1`, for which the EC50 is above 200 µM and the IC50 was above 200 µM.

For the compound `O=C1CCC/C1=C1/SS/C(=C2/CCCC2=O)S1`, the EC50 was above 200 µM and the IC50 came out at 102 µM.

As for `O=C(Nc1ccc(Cl)cc1)OCC12COCN1COC2`, the EC50 was 204 µM and the IC50 was 257 µM.

For the compound `CC1ON2CCCC2[C@H]1C(=O)N1C2CC3CCC2(CS1(=O)=O)C3(C)C` (some centres undefined), the EC50 was above 200 µM and the IC50 is above 200 µM.

Regarding `Cc1c(CCCl)c(=O)n2c([nH]c3ccccc32)c1C#N`, the EC50 was above 200 µM and the IC50 came to 7.59 µM.

Consider `N#CC(NCCc1ccccc1)c1ccccc1` (centres undefined), for which the result was inactive.

Regarding `Nc1ccc(SSc2ccc(Nc3ccnc4cc(Cl)ccc34)cc2)cc1`, the EC50 is above 200 µM and the IC50 was 5.01 µM.

`CCOC1(O)C(=O)c2ccccc2OC1(OCC)c1ccccc1` (centres undefined): the EC50 was above 200 µM and the IC50 was 26.9 µM.

`O=C(O)c1c(O)ccc(N=Nc2ccc(CCc3ccc(N=Nc4ccc(O)c(C(=O)O)c4O)cc3S(=O)(=O)O)c(S(=O)(=O)O)c2)c1O`: the EC50 is above 162 µM and the IC50 came to 97.7 µM.

In the case of `O=C(O)CCC1CCc2cccc3oc(C(=O)O)c1c23` (centres undefined), the result was inactive.

As for `CC(=O)OCCn1cnc2c(NCC=C(C)C)ncnc21`, the EC50 is above 200 µM and the IC50 was above 200 µM.

Turning to `FC(F)(F)c1ccc2c(c1)N(CCCN1CCN(C3CC3)CC1)c1ccccc1S2`, the EC50 was above 200 µM and the IC50 was 33.1 µM.

Take `CN1BN(C)BN(C)B1`: the EC50 was above 2040 µM and the IC50 was above 2040 µM.

With `CC(C)CCCCCCCCCCCCC(=O)NCC(=O)NC1C(C)OC(Nc2ncnc3c2ncn3C)C(O)C1O` (centres undefined), the result was inactive.

For the compound `COc1ccc(NC(=O)CCc2cc(-c3ccc(O)c(OC)c3)nc(NC#N)n2)cc1`, the EC50 was above 224 µM and the concentration for half-maximal inhibition (IC50) was above 224 µM.

For `CC1(C)C(=O)N(O)C(C)(C)N1O`, the EC50 was above 200 µM and the IC50 was above 200 µM.

As for `N=C(N)SCc1cccc2c(=O)cc(-c3ccccc3)oc12`, the EC50 was above 646 µM and the half-maximal inhibitory concentration (IC50) amounted to 5.62 µM.

`C[C@]12CCC3=NCCCN3C1=CC[C@@H]1[C@@H]2CC[C@@]2(C)[C@H]1CC[C@]2(C)O`: the EC50 was above 47.9 µM and the IC50 was above 47.9 µM.

Regarding `Cc1ccncc1.Cc1ccncc1.O=[N+]([O-])[O-].O=[N+]([O-])[O-].[Pt+2]`, the EC50 is above 148 µM and the IC50 was found to be 69.2 µM.

As to `O=c1[nH]c(C2CCCCC2)nc2cc(Cl)ccc12`, the outcome was inactive.

`O=C(Nc1ccccc1C(=O)O)C(=Cc1ccccc1O)NC(=O)c1ccccc1`: the EC50 was above 200 µM and the IC50 was above 200 µM.

On to `Cc1c(Cc2ccc(Cl)cc2)c(=O)[nH]c(=O)n1C`, for which the EC50 is above 97.7 µM and the IC50 is above 97.7 µM.

`CCC(CC)C(=O)NCC(=O)NO`: the EC50 is above 200 µM and the IC50 was above 200 µM.

`Cc1cc(NS(=O)(=O)c2ccc(Nc3c4ccccc4nc4c(C(=O)NCCO)cccc34)cc2)no1`: the EC50 was above 200 µM and the half-maximal inhibitory concentration (IC50) came to 12.6 µM.

Regarding `CC1(C)C2CC(=O)C1(C)C(OCc1ccccc1)C2` (centres undefined), the outcome was inactive.

With `CC1CC(c2ccc3ccccc3c2)NCCNC(c2ccc3ccccc3c2)CC(C)NCCN1` (centres undefined), the EC50 is above 200 µM and the concentration for half-maximal inhibition (IC50) amounted to 1.15 µM.

Consider `COc1cccc(OC)c1/C=N\N1C(=O)c2ccccc2C1=O`, for which the EC50 is above 115 µM and the IC50 worked out at 12 µM.

`CCCCCCCCCCCCCCCCCCOP(=O)(O)OCCC=C(c1cc(Cl)c(O)c(C(=O)O)c1)c1cc(Cl)c(O)c(C(=O)O)c1`: the EC50 is above 170 µM and the IC50 turned out to be 63.1 µM.

For `S=C1SC(=Nc2ccccc2)C(=Nc2ccccc2)N1c1ccc2ccccc2c1`, the EC50 was above 200 µM and the IC50 was determined as 14.1 µM.

In the case of `CC(C)(Cc1ccccc1)Cc1cc(O)ccc1O`, the EC50 is 1.29 µM and the half-inhibitory concentration (IC50) is 7.24 µM.

For `COc1ccccc1C1(c2c(OC(C)C)c(=O)c2=O)SCCCS1`, the EC50 was above 200 µM and the IC50 was found to be 138 µM.

For `Cc1ccsc1C(=S)Nc1ccc(Cl)c(C(=O)OC(C(C)C)C(C)C)c1`, the 50% effective concentration (EC50) is 0.309 µM and the IC50 was 21.4 µM.

Take `CC(C)C(=O)CC(c1ccc(Cl)cc1)N1N=C(C(C)C)CC1c1ccc(Cl)cc1` (centres undefined): the outcome was inactive.

Consider `C=C(CCC/C(C)=C/C=C/[C@]1(C)CCCc2ccoc21)CC(=O)O`, for which the EC50 was 16.2 µM and the IC50 is above 200 µM.

With `COc1nc2ncc([C@@H](O)[C@H](O)CO)nc2c(=O)[nH]1`, the EC50 is above 200 µM and the IC50 is above 200 µM.

As for `COc1ccc(-c2c(C(C)=O)c(-c3ccccc3)n(C3OC(COC(C)=O)C(OC(C)=O)C(OC(C)=O)C3OC(C)=O)c(=S)c2C#N)cc1` (centres undefined), the EC50 was above 200 µM and the half-inhibitory concentration (IC50) was 123 µM.

With `Nc1ccc(SCc2ccc(C(=O)O)cc2)cc1`, the EC50 was above 28.2 µM and the half-maximal inhibitory concentration (IC50) is above 28.2 µM.

On to `Cc1ccc2cc(NC(=O)CN)c3ccc(C)nc3c2n1`, for which the EC50 is above 20 µM and the IC50 was 3.72 µM.

Consider `CC1(C)C2CCC1(C)C(OC(=O)/C=C/C(=O)OC1CC3CCC1(C)C3(C)C)C2` (centres undefined), for which the outcome was inactive.

With `O=S1(=O)CC#CC[C@@H](CO)[C@@H](CO)CC#CC1`, the outcome was inactive.

For the compound `CC(CCC=C(c1cc(Cl)c(O)c(C(=O)O)c1)c1cc(Cl)c(O)c(C(=O)O)c1)C1CCC2[C@@H]3CC[C@@H]4CC(F)(F)CC[C@]4(C)C3CC[C@]12C` (some centres undefined), the EC50 is above 170 µM and the half-inhibitory concentration (IC50) is 38 µM.

In the case of `O=C1NC(=O)C(=Cc2cccc(F)c2)C(=O)N1`, the EC50 is above 112 µM and the IC50 is above 112 µM.

As for `O=C(/C=C/c1ccc(O)cc1)OCC1OC(Oc2cc(O)c3c(c2)OC(c2ccc(O)cc2)CC3=O)C(O)C(O)C1O` (centres undefined), the EC50 is above 51.3 µM and the IC50 amounted to 27.5 µM.

Take `c1ccc(CNCCCNCCCCNCCCNCc2ccccc2)cc1`: the EC50 was above 15.1 µM and the IC50 came out at 1.62 µM.

On to `CC(C)(c1cc(Cl)c(O)c(CN2CCOCC2)c1)c1cc(Cl)c(O)c(CN2CCOCC2)c1`, for which the EC50 is above 200 µM and the IC50 was found to be 107 µM.

Regarding `COc1ccc(-c2c(C#N)c(NC(=S)NC(=O)c3ccccc3)nc3c2CCCC3)cc1OC`, the EC50 was above 200 µM and the IC50 was determined as 115 µM.

With `N#Cc1ccc(N=NN2CCCC2)cc1`, the EC50 is above 200 µM and the concentration for half-maximal inhibition (IC50) was 17.8 µM.

For the compound `Cc1nc2cccc([N+](=O)[O-])c2c(NCCCN(C)C)c1C`, the EC50 was above 200 µM and the IC50 was 40.7 µM.

As to `Brc1c2nc3ccccc3nc2n2ccc3ccccc3c12`, the EC50 was above 28.8 µM and the IC50 is above 28.8 µM.

Consider `CC1=Nc2ccccc2NC(=O)C1`, for which the EC50 was above 200 µM and the IC50 is above 200 µM.

Consider `COc1nc2sc3c(c2c(=O)n1CCCSSCCCn1c(OC)nc2sc4c(c2c1=O)CCCC4)CCCC3`, for which the EC50 is above 100 µM and the concentration for half-maximal inhibition (IC50) was above 100 µM.

Turning to `CC1=Nn2c(nnc2-c2cccc(N)c2)NC(C)(C)C1`, the EC50 was above 468 µM and the IC50 was above 468 µM.

As for `[Cu+2].[NH-]c1cc(N)ccc1O.[NH-]c1cc(N)ccc1O`, the outcome was inactive.

For the compound `O=C(O)c1cc2ccccc2c(N=Nc2ccc(S(=O)(=O)Nc3nccs3)cc2)c1O`, the EC50 was above 200 µM and the IC50 was 155 µM.

On to `O=C1CCCC2C3CC(CN12)C1CC(O)CCN1C3` (centres undefined), for which the EC50 is above 200 µM and the IC50 was above 200 µM.

For the compound `O=c1[nH]c2cc([N+](=O)[O-])ccc2nc1/C(=N/Nc1ccccc1)C(O)c1ccc(C(O)/C(=N\Nc2ccccc2)c2cnc3cc([N+](=O)[O-])ccc3n2)cc1` (centres undefined), the EC50 is above 49 µM and the IC50 turned out to be 17 µM.

For `CN1CC2=C(NC(=S)NC2c2ccccc2Cl)/C(=C/c2ccccc2Cl)C1` (centres undefined), the EC50 is above 200 µM and the 50% inhibitory concentration (IC50) amounted to 13.2 µM.

On to `C=CCC(CC=O)(C(=O)OCC)C(=O)OCC`, for which the EC50 is above 200 µM and the IC50 was found to be 110 µM.

As for `Cc1cc(C)c2c(c1)sc1n[nH]c(=S)n12`, the EC50 was above 63.1 µM and the 50% inhibitory concentration (IC50) was above 63.1 µM.

For `CN(C)Cc1cc(C(=O)/C=C/c2cccc(Cl)c2)cc(CN(C)C)c1O`, the outcome was inactive.

As to `CC(=O)OCC1=C(C(=O)O)N2C(=O)C(NC(=O)CSc3ccncc3)C2SC1` (centres undefined), the EC50 is 61.7 µM and the 50% inhibitory concentration (IC50) amounted to 631 µM.

On to `N#C/C(=C\c1ccccc1Cl)c1ccccc1`, for which the EC50 is above 200 µM and the IC50 amounted to 72.4 µM.

Consider `CC1(C)OCC(C(O)C2OC(C)(C)OC2C=O)O1` (centres undefined), for which the EC50 is above 200 µM and the IC50 is above 200 µM.

As to `O=S(=O)(O)CCS`, the EC50 was above 200 µM and the IC50 was above 200 µM.

In the case of `Cc1ccc(S(=O)(=O)OI(C#CC(C)(C)C)c2ccccc2)cc1`, the EC50 was above 200 µM and the IC50 came to 1.05 µM.

Take `CN1NC(C2NN(C)C(=O)N(C)N2)NN(C)C1=O`: the EC50 is above 977 µM and the IC50 amounted to 33.1 µM.

Consider `COc1ccc2c(c1)CCc1cnc(=S)[nH]c1-2`, for which the EC50 was above 40.7 µM and the IC50 was above 40.7 µM.

Take `C1CCC(N2OC23CCCCC3)CC1` (centres undefined): the result was inactive.

Turning to `Cc1nc2c(cnn2C)cc1CCc1ccccc1`, the EC50 is above 200 µM and the IC50 was determined as 33.9 µM.

Take `CC(=O)OC1CC2Oc3ccc(C)cc3C(C)(O2)C1=O` (centres undefined): the result was inactive.

As to `CN1C(=O)Cn2c(n[nH]c(=O)c2=O)-c2cc(Cl)ccc21`, the EC50 is above 302 µM and the IC50 is above 302 µM.
